The source of these data is doi:10.1101/2025.01.07.631748, “Strategic Modulation of Polarity and Viscosity Sensitivity of Bimane Molecular Rotor-Based Fluorophores for Imaging α-Synuclein” (bioRxiv, 2025).

The target in assay [1] is T1, α-synuclein (αS) fibrils (Homo sapiens, UniProt P37840).
T1 construct: gene SNCA
Briefly: fluorescence turn-on binding titration with αS fibrils.

Assay [2] concerns the target T1, α-synuclein (αS) fibrils. Briefly: fluorescence competition binding with 3c and 4a; fluorescence turn-on.

As to `Cc1c(C)n2c(/C=C/c3ccc(N4CCC4)cc3)c(C)c(=O)n2c1=O` [3d, RBF 3d], on α-synuclein (αS) fibrils [1], the Kd was 3d and 3e, with cyclic amines, showed reduced affinity.
In the case of `Cc1c(C)n2c(/C=C/c3ccc(N4CCOCC4)cc3)c(C)c(=O)n2c1=O` [3e, RBF 3e], the Kd on α-synuclein (αS) fibrils [1] was 3d and 3e, with cyclic amines, showed reduced affinity.
As to `Cc1ccc2c(c1)sc(-c1ccc(N(C)C)cc1)[n+]2C` [ThT, Thioflavin-T], on α-synuclein (αS) fibrils [2], the “fluorescence competition binding with 3c and 4a; fluorescence turn-on” value is “both 3c and 4a competed with the promiscuous binder ThT, but that some ThT emission remained at saturating concentrations”.
